Literature values as cited in article PMC8198792, “Prediction of Anticancer Peptides with High Efficacy and Low Toxicity by Hybrid Model Based on 3D Structure of Peptides” (International Journal of Molecular Sciences, 2021).
Where two headings read alike, the source gives them in different places.

Assays:
cancer cell lines = tested on: cancer cell lines; design: method as in 6 sources, ref CancerPPD [45] and SATPdb ||| ref CancerPPD/SATPdb ||| ref CancerPPD, SATPdb, Swissprot (PDB) ||| ref CancerPPD/SATPdb/Swissprot(PDB) ||| ref CancerPPD / SATPdb ||| ...; settings: 0 = non-ACP, cited from earlier work
From the text: Supplement ijms-22-05630-s001.zip/ACPs(seguence).xlsx, sheet "D1" | column: Activity || Supplement ijms-22-05630-s001.zip/ACPs(seguence).xlsx, sheet "D2" | column: Activity || Supplement ijms-22-05630-s001.zip/ACPs(seguence).xlsx, sheet "D3" | column: Activity || (+ 2 further places)

[1] = tested on: many types of cells, including non-cancer cells; settings: toxic peptides dataset TD2; class label 1 (toxic, positive set) or 0 (non-toxic AMP, negative set); ref SATPdb; cited from earlier work
erythrocytes = settings: cited from earlier work
From the text: Supplement ijms-22-05630-s001.zip/Hemloytic Peptides(seguence).xlsx, sheet "HD1" | column: Activity || Supplement ijms-22-05630-s001.zip/Hemloytic Peptides(seguence).xlsx, sheet "HD2" | column: Activity || Supplement ijms-22-05630-s001.zip/Hemloytic Peptides(seguence).xlsx, sheet "HD3" | column: Activity

[2] = ACPs dataset D3 (sheet "D3"), label 1 = ACP, ref CancerPPD/SATPdb
[3] = ACPs dataset D4 (sheet "D4"), label 1 = ACP, ref CancerPPD / SATPdb
[4] = ACPs dataset D5, sheet "D5", label 1 = ACP, ref CancerPPD [45] and SATPdb
[5] = ACPs dataset D3 (supplement sheet "D3"), 1 = ACP, ref CancerPPD [45] and SATPdb
[6] = Hemolytic peptides dataset HD2, label 1 = hemolytic, 0 = non-hemolytic, ref Hemolytik/SATPdb
[7] = hemolytic peptides dataset HD3, 1 = hemolytic (positive set), 0 = non-hemolytic (negative set), labels taken from databases, ref Hemolytik/SATPdb

Substance | Activity [1] | further results
ACNFQSCWATCQAQHSIYFRRAFCDRSQCKCVFVRG [satpdb14312] | 0 | Activity (cancer cell lines; [2]): 0; Activity (cancer cell lines; [3]): 0; Activity (cancer cell lines; [4]): 0
AIGSILGALAKGLPTLISWIKNR [satpdb14614] | 1 | Activity (cancer cell lines; [2]): 0; Activity (cancer cell lines; [3]): 0; Activity (cancer cell lines; [4]): 0
AILTTLANWARKFL [satpdb12672] | 0 | Activity (cancer cell lines; [2]): 0; Activity (cancer cell lines; [3]): 0; Activity (cancer cell lines; [4]): 0
ALALLOHALHOLALLAOHLAHOLALA [satpdb11016] | 0 | Activity (cancer cell lines; [5]): 0
ALKAALLAILKIVRVIKK [satpdb15928] | 0 | 
ALYLAIRRR [satpdb16531] | 0 | 
AMWKDVLKKIGTVALHAGKAALGAVADTISQ [satpdb14434] | 0 | Activity (cancer cell lines; [2]): 0; Activity (cancer cell lines; [3]): 0; Activity (cancer cell lines; [4]): 0
AVLDILKDVGKGLLSHFMEKV [satpdb13844] | 0 | Activity (cancer cell lines; [2]): 0; Activity (cancer cell lines; [3]): 0; Activity (cancer cell lines; [4]): 0
FASLLGKALKALAKQ [satpdb10678] | 0 | Activity (cancer cell lines; [5]): 0; Activity (cancer cell lines; [3]): 0; Activity (cancer cell lines; [4]): 0
FFGAIAAALPHVISAIKNAL [satpdb28842] | 1 | 
FFGWLIKGAIHAGKAIHGLIHRRRH [satpdb28313] | 1 | 
FFPIVGKLLFGLSGLL [satpdb12681] | 0 | Activity (cancer cell lines; [2]): 0; Activity (cancer cell lines; [3]): 0; Activity (cancer cell lines; [4]): 0
FFPIVGKRLYGLL [satpdb15392] | 0 | 
FFPLLFGALSSHLPKLF [satpdb16485] | 1 | 
FFPLVLGALGSILPKIF [satpdb25475] | 1 | 
FIGAILPAIAGLVGGLINR [satpdb12061] | 1 | Activity (cancer cell lines; [2]): 0; Activity (cancer cell lines; [3]): 0; Activity (cancer cell lines; [4]): 0
FIGAILPAIAGLVHGLINR [satpdb19442] | 1 | 
FIGALLRPALKLLAGK [satpdb27126] | 1 | 
FIGAVAGLLSKIF [satpdb10850] | 1 | Activity (cancer cell lines; [5]): 0; Activity (cancer cell lines; [3]): 0; Activity (cancer cell lines; [4]): 0
FIGLLISAGKAIHDLIRRRH [satpdb26817] | 1 | 
FIPLVSGLFSRLL [satpdb15094] | 0 | 
FISGLIGGLMKAL [satpdb16102] | 0 | 
FLGAIAAALPHVINAVTNAL [satpdb16106] | 1 | 
FLGLLGSLL [satpdb15039] | 0 | 
FLPAALAGIGGILGKLF [satpdb24046] | 1 | 

Substance | Activity [1] | further results
FLPFLIPALTSLISSL [satpdb15275] | 0 | 
FLPLIGKILGTIL [satpdb15913] | 0 | 
FLPLLFGALSTLLPKIF [satpdb23665] | 1 | 
FLPLVLGALSGILPKIL [satpdb22972] | 1 | 
FLPVILPVIGKLLSGIL [satpdb17809] | 1 | 
FLSAITSLLGKLL [satpdb15955] | 0 | 
FLSGIVGMLGKLF [satpdb21516] | 1 | 
FVQWFSKFLGRIL [satpdb16211] | 1 | 
GALRGCWTKSYPPKPCK [satpdb24908] | 1 | 
GFGPAFHSVSNFAKKHKTA [satpdb16916] | 0 | 
GFIFHIIKGLFHAGKMIHGLV [satpdb15908] | 0 | 
GFKDLLKGAAKALVKTVLF [satpdb25277] | 1 | 
GFKRIVQRIKDFLRNLV [satpdb10735] | 0 | 
GFMKYIGPLIPHAVKAISDLI [satpdb17997] | 1 | 
GFRKFHKFWA [satpdb14908] | 0 | 
GIGGALLSAGKAALKGLAKVLV [satpdb22839] | 1 | 
GIGGVLLGAGKATLKGLAKVLAEKYAN [satpdb26873] | 1 | 
GILDAIKAFANALG [satpdb15517] | 0 | 
GKWMSLLKHILK [satpdb20336] | 1 | 
GLFDIIKKIAESF [satpdb11488] | 0 | 
GLFDIIKKVASVIGGL [satpdb15856] | 0 | 
GLFDIVKKIAGHIVSSI [satpdb13076] | 0 | 
GLGSLVGNALRIGAKLL [satpdb15217] | 0 | 
GLKDIFKAGLGSLVKNIAAHVAN [satpdb11475] | 0 | 
GLLDFVTGVGKDIFAQLIKQI [satpdb25435] | 1 | 

Substance | Activity [1] | further results
GLLDIVKKVVGAFGSL [satpdb12368] | 0 | 
GLLSFLPKVIGVIGHLIHPPS [satpdb15305] | 0 | 
GLPVCGETCVGGTCNTPGCTCSWPVCTRN [satpdb19932] | 1 | 
GLVTGLLKTAGKLLGDLFGSLSG [satpdb20565] | 1 | 
GLVTGLLKTAGKLLGDLFGSLTG [satpdb19701] | 1 | 
GLVTSLIKGAGKLLGGLFGSVTG [satpdb15873] | 0 | 
GLWQKIKNAAGDLASGIVEGIKS [satpdb17290] | 0 | 
GMASKAGSVLGKLAKVAIGAL [satpdb16457] | 0 | 
GMWSKILGHLIR [satpdb20159] | 1 | 
GRRRRSVQWCAVSQPEATKCFQWQRNMRKVRGPPVSCIKRDSPIQCIQA [satpdb10374] | 0 | 
GVIIDTLKGAAKTVAAELLRKAHCKLTNSC [satpdb16783] | 1 | 
GVLDIFKDAAKQILAHAAEKQI [satpdb12665] | 1 | 
GVLDILKNAAKNILAHAAEQI [satpdb26113] | 1 | 
GVLSVIKNALPGIMRF [satpdb16950] | 0 | 
GVVDILKGAGKDLLAHLVGKISEKV [satpdb27434] | 1 | 
GVVTDLLKTAGKLLGNLVGSLSG [satpdb26504] | 1 | 
GVVTDLLNTAGGLLGNLVGSLSG [satpdb21886] | 1 | 
GWLRKAAKSVGKFYYKHKYYIKAAWKIGRHAL [satpdb17212] | 0 | 
IFGAILPLALGALKNLIK [satpdb27411] | 1 | 
IIGAIAAALPHVINAIKNTF [satpdb19948] | 1 | 
IIGHLIKTALGMLGL [satpdb15972] | 0 | 
IIGPVLGLVGKPLESLLE [satpdb17226] | 0 | 
ILPILSLIGGLLGK [satpdb11856] | 0 | 
ILPWKWPWWPWRR [satpdb22480] | 1 | 
KAYSMPRCKYLFRAVLCWL [satpdb15879] | 0 | 

Substance | Activity [1] | further results
KILRGVSKKIMRTFLRRILTGKK [satpdb23198] | 1 | 
KISKKIMRTFLRRILTGKK [satpdb19592] | 1 | 
LALALKHALHKALLLAKHLAHKLALA [satpdb16273] | 0 | 
LGPALITRKPLKGKP [satpdb17072] | 0 | 
LKLSPKTKDTLKKVLKGAIKGAIAIASMA [satpdb13200] | 1 | 
LLDVLLE [satpdb11533] | 0 | 
LLGMIPLAISAISALSKL [satpdb26571] | 1 | 
LLGMIPLAISAISSLSKL [satpdb20037] | 1 | 
LLPIVGNLLNSLL [satpdb24565] | 1 | 
NFLGTLINLAKKIM [satpdb14927] | 0 | 
NFLGTLVNLAKKIL [satpdb20410] | 1 | 
NILNTIINLAKKIL [satpdb16074] | 0 | 
RFRLPFRRPPIRIHPPPFYPPFRRFL [satpdb12266] | 1 | 
RILRGVSRRIMRRILTGRR [satpdb20239] | 1 | 
RRIPRPILLPWRPPRPIPRPQPQPIPRWL [satpdb15488] | 0 | 
RRRPRPPYLPRPRPPPFFPPRLPPRIPPGFPPRFPPRFP [satpdb15417] | 0 | 
SAPRGCWTKSYPPKPCK [satpdb28266] | 1 | 
SLSRFLSFLKIVYPPAF [satpdb15130] | 0 | 
TKPTLLGLPLGAGPAAGPGKR [satpdb17447] | 0 | 
VDIHVWD*GV [satpdb19274] | 1 | 
VSWKKSLGKIIKVVK [satpdb13183] |  | Activity (cancer cell lines; [2]): 0; Activity (cancer cell lines; [3]): 0; Activity (cancer cell lines; [4]): 0; Activity (erythrocytes; [6]): 1; Activity (erythrocytes; [7]): 1
WLKKLLKKLLK [satpdb12765] |  | Activity (cancer cell lines; [2]): 0; Activity (cancer cell lines; [3]): 0; Activity (cancer cell lines; [4]): 0; Activity (erythrocytes): 1
kklfkkILKYL [satpdb10342] |  | Activity (cancer cell lines; [5]): 0; Activity (cancer cell lines; [3]): 0; Activity (cancer cell lines; [4]): 0; Activity (erythrocytes; [6]): 0; Activity (erythrocytes; [7]): 0
yPVKLyPVKL [satpdb11316] |  | Activity (cancer cell lines; [5]): 0; Activity (cancer cell lines; [3]): 0; Activity (cancer cell lines; [4]): 0; Activity (erythrocytes; [6]): 1; Activity (erythrocytes; [7]): 1
